Measurements as given in US20250304927A1, “PRO-PEPTIDE VARIANTS FOR MODULATING ACTIVITY OF TRANSGLUTAMINASES” (CURIE CO. INC., priority 2022, published 2025).
Where no end group is shown, it is not given here.

T1: evolved variant of mature Streptomyces mobaraensis transglutaminase, including a two amino acid linker and … (Streptomyces mobaraensis, UniProt P81453 79-407)
T1 chain: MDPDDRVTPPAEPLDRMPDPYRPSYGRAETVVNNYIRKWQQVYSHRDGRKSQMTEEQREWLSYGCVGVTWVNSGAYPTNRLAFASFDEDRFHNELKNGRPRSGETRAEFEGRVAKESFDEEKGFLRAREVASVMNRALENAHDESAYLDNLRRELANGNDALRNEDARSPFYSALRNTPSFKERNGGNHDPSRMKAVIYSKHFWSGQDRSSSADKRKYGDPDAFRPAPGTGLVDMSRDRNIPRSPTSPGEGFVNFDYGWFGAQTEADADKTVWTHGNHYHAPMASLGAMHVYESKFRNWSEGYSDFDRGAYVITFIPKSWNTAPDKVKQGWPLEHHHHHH


Target: T1, evolved variant of mature Streptomyces …
Assay: cell-based or functional assay
Settings: not given

For MSNGAGSETKSYAETYRLTADQVANINALNESAPAASSAGPSFRAP [pro-peptide variant D2S, E7S, D22Q (Method B)], which Inhibition is on record?
The Inhibition was > 2 fold.

How did the Inhibition turn out when MSNGAGSETKSYAETYRLTADDVANINALNESAPAASSAGPSFRAP [pro-peptide variant D2S, E7S (Method B)] was run?
Its Inhibition is > 2 fold.

For MINGAGSETKSYAETYRLTADQVANINALNESAPAASSAGPSFRAP [pro-peptide variant D2I, E7S, D22Q (Method B)], which Inhibition is on record?
Its Inhibition is > 2 fold.

target: T2, thermostable mature transglutaminase variant (SEQ ID NO: 3) (Streptomyces mobaraensis, UniProt P81453); assay: not given; format: biochemical; settings: increase in transglutaminase activity relative to wild-type pro-peptide, casein assay; Method A
T2 construct: made in house; host or cells: E. coli (lysate)
T2 sequence (P81453 other isoform, or with tags, fused parts or gaps): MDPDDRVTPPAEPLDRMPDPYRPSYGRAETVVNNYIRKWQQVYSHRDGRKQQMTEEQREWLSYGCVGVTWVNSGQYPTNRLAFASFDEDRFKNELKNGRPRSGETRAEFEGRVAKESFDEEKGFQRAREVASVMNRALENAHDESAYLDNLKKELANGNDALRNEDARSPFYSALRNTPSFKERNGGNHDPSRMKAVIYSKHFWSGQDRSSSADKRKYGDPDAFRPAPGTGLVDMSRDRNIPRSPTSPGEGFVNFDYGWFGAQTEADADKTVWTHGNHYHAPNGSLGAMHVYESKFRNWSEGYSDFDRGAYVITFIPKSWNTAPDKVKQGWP
Excerpt: Method A. A bicistronic expression vector encoding the wild-type pro-domain of transglutaminase (SEQ ID NO: 2) and a thermostable mature transglutaminase variant (SEQ ID NO: 3) as separate polypeptides was cloned as described in PCT/US20/49226 (WO2021/178001 A1). The vector was used as a template for synthesis of a random mutagenesis library targeting the pro-domain coding sequence to create pro-domain peptide variants.
Method A. Plasmid libraries containing mature transglutaminase and variant pro-domain peptides were plated on Luria-Bertani (LB) agar plates containing 50 μg/mL of kanamycin. After incubation for at least 16 hours at 37° C., colonies were picked and inoculated into 1 mL of LB broth with 50 μg/mL kanamycin in one well of a 96 deep well culture plate. The plate was covered with a breathable seal and incubated overnight at 37° C. with 400 rpm of shaking. 10 μL of the seed culture was used to inoculate 1 mL of media in a 96 deep well culture plate for expression. The expression plate was allowed to grow for 6-8 hours at 30° C. Expression was then induced by adding isopropyl beta-D-1-thiogalactopyranoside (IPTG) to a final concentration of 1 mM and the temperature was reduced to 20° C. while growth continued for an additional 15 hours. Cells were harvested by centrifugation at 4000 rcf for 30 minutes and pellets were frozen at −80° C.
A secondary screen was performed to determine initial rate of transglutaminase in the presence of the pro-peptide variants using transglutaminase-catalyzed labeling of casein with dansylcadaverine (e.g., a commercially available kit such as the Transglutaminase Fluorogenic Activity Assay Kit, T036, Zedira, Germany). Transglutaminase activity was monitored by measuring the fluorescence (excitation wavelength 332 nm; emission wavelength 500 nm) using a BioTek Synergy H1 microplate reader. Transglutaminase-catalyzed covalent coupling (crosslinking) of monodansylcadaverine with N,N-dimethylcasein produces a product that causes a shift in intensity and wavelength of fluorescence of the dansyl group now linked to the casein. The relative transglutaminase activity is shown by increase of fluorescence intensity over time. The data were normalized for transglutaminase expression levels in E. coli lysate as described above. Pro-domain variants were identified based on their ability to alter the activity of the mature transglutaminase enzyme. […]
It is believed that these pro-peptide variants have reduced binding affinity with mature mTgase.

“MDNGAGEETKHYAETYRLTADDVANINALNESAPAASSAGPSFRAP [Variant S11H]” was tested. Which “Reduction in binding affinity of inhibitory peptide relative to WT” value did it give?
Its value is >1.2 fold.

How did the “Reduction in binding affinity of inhibitory peptide relative to WT” value turn out when “MDNGAGEETKGYAETYRLTADDVANINALNESAPAASSAGPSFRAP [Variant S11G]” was run?
The value was >5 fold.

“MDNGAGEETKSYAETYRLTADDVANENALNESAPAASSAGPSFRAP [Variant I26E]” was tested. Which “Reduction in binding affinity of inhibitory peptide relative to WT” value did it give?
Its value is >1.2 fold.

“MDNGAGEEQKSYAETYRLTADDVANINALNESAPAASSAGPSFRAP [Variant T9Q]” was tested. Which “Reduction in binding affinity of inhibitory peptide relative to WT” value did it give?
Its value is >1.2 fold.

With MDNGAGEETKSYAETYRLTAD [ΔD22-P46] as the molecule, how does the “Reduction in binding affinity of inhibitory peptide relative to WT” value read?
The value was >1.2 fold.

With “MDNGAGEETKLYAETYRLTADDVANINALNESAPAASSAGPSFRAP [Variant S11L]” as the molecule, how does the “Reduction in binding affinity of inhibitory peptide relative to WT” value read?
The value was >1.2 fold.

Which “Reduction in binding affinity of inhibitory peptide relative to WT” value does the source give for MDNGAGEETKSYAETYR [ΔL18-P46] here?
Its value is >1.2 fold.

How did the “Reduction in binding affinity of inhibitory peptide relative to WT” value turn out when “MDNGAGEETKSYAETYRLTADGVANINALNESAPAASSAGPSFRAP [Variant D22G]” was run?
The value was >1.2 fold.

For “MDNGAGEETKSYAETYRETADDVANINALNESAPAASSAGPSFRAP [Variant L18E]”, which “Reduction in binding affinity of inhibitory peptide relative to WT” value is on record?
Its value is >1.2 fold.

How did the “Reduction in binding affinity of inhibitory peptide relative to WT” value turn out when “MDNGAGEETKYYAETYRLTADDVANINALNESAPAASSAGPSFRAP [Variant S11Y]” was run?
Its value is >1.2 fold.

How did the “Reduction in binding affinity of inhibitory peptide relative to WT” value turn out when “MDNGAGEETKSYATTYRLTADDVANINALNESAPAASSAGPSFRAP [Variant E14T]” was run?
Its value is >1.2 fold.

With “MDNGAGEETKSYAETYRLTADRVANINALNESAPAASSAGPSFRAP [Variant D22R]” as the molecule, how does the “Reduction in binding affinity of inhibitory peptide relative to WT” value read?
The value was >1.2 fold.

How did the “Reduction in binding affinity of inhibitory peptide relative to WT” value turn out when “MDNGAGEYTKSYAETYRLTADDVANINALNESAPAASSAGPSFRAP [Variant E8Y]” was run?
Its value is >1.2 fold.

For “MDNGAGEETKSSAETYRLTADDVANINALNESAPAASSAGPSFRAP [Variant Y12S]”, which “Reduction in binding affinity of inhibitory peptide relative to WT” value is on record?
The value was >5 fold.

Which “Reduction in binding affinity of inhibitory peptide relative to WT” value does the source give for “MDNGAGEETKSYAETYRLTADDVANYNALNESAPAASSAGPSFRAP [Variant I26Y]” here?
The value was >1.2 fold.

With “MDNGAGEETKSYAETYRLTADDVANINALNESAPAASPAGPSFRAP [Variant S38P]” as the molecule, how does the “Reduction in binding affinity of inhibitory peptide relative to WT” value read?
The value was >1.2 fold.

How did the “Reduction in binding affinity of inhibitory peptide relative to WT” value turn out when “MDNGAGEETKSYAETYRKTADDVANINALNESAPAASSAGPSFRAP [Variant L18K]” was run?
Its value is >1.2 fold.

Which “Reduction in binding affinity of inhibitory peptide relative to WT” value does the source give for “MDNGAGEETKSVAETYRLTADDVANINALNESAPAASSAGPSFRAP [Variant Y12V]” here?
Its value is >1.2 fold.

Which “Reduction in binding affinity of inhibitory peptide relative to WT” value does the source give for “MDNGAGEETKSLAETYRLTADDVANINALNESAPAASSAGPSFRAP [Variant Y12L]” here?
Its value is >1.2 fold.

How did the “Reduction in binding affinity of inhibitory peptide relative to WT” value turn out when “MDNGAGEETKSYAATYRLTADDVANINALNESAPAASSAGPSFRAP [Variant E14A]” was run?
Its value is >1.2 fold.

For “MDNGAGEETKSYAETYRLTADDVANINALNESAPAASDAGPSFRAP [Variant S38D]”, which “Reduction in binding affinity of inhibitory peptide relative to WT” value is on record?
Its value is >1.2 fold.

Which “Reduction in binding affinity of inhibitory peptide relative to WT” value does the source give for “MDNGAGEETKSYANTYRLTADDVANINALNESAPAASSAGPSFRAP [Variant E14N]” here?
Its value is >1.2 fold.

“MDNGAGEETKSYAHTYRLTADDVANINALNESAPAASSAGPSFRAP [Variant E14H]” was tested. Which “Reduction in binding affinity of inhibitory peptide relative to WT” value did it give?
The value was >1.2 fold.

Which “Reduction in binding affinity of inhibitory peptide relative to WT” value does the source give for “MDNGAGEETKSYAETYRLTADPVANINALNESAPAASSAGPSFRAP [Variant D22P]” here?
Its value is >1.2 fold.

“MDNGAGEETKSYAETYRLTADQVANINALNESAPAASSAGPSFRAP [Variant D22Q]” was tested. Which “Reduction in binding affinity of inhibitory peptide relative to WT” value did it give?
Its value is >1.2 fold.

Which “Reduction in binding affinity of inhibitory peptide relative to WT” value does the source give for “MDNGAGEETKSYAGTYRLTADDVANINALNESAPAASSAGPSFRAP [Variant E14G]” here?
Its value is >1.2 fold.

With “MDNGAGEETKKYAETYRLTADDVANINALNESAPAASSAGPSFRAP [Variant S11K]” as the molecule, how does the “Reduction in binding affinity of inhibitory peptide relative to WT” value read?
The value was >1.2 fold.

“MDNGAGEETKSYAETYRLTADDVANINALNESAPAASYAGPSFRAP [Variant S38Y]” was tested. Which “Reduction in binding affinity of inhibitory peptide relative to WT” value did it give?
Its value is >1.2 fold.

“MDNGAGEETKSNAETYRLTADDVANINALNESAPAASSAGPSFRAP [Variant Y12N]” was tested. Which “Reduction in binding affinity of inhibitory peptide relative to WT” value did it give?
The value was >1.2 fold.

Which “Reduction in binding affinity of inhibitory peptide relative to WT” value does the source give for “MDNGAGEETKSYAETYRSTADDVANINALNESAPAASSAGPSFRAP [Variant L18S]” here?
The value was >1.2 fold.

Which “Reduction in binding affinity of inhibitory peptide relative to WT” value does the source give for “MDNGAGEETKSYAVTYRLTADDVANINALNESAPAASSAGPSFRAP [Variant E14V]” here?
The value was >1.2 fold.

With MDNGAGEETKSYAETYRLTADDVAN [ΔI26-P46] as the molecule, how does the “Reduction in binding affinity of inhibitory peptide relative to WT” value read?
Its value is >1.2 fold.

For “MDNGAGEETRSYAETYRLTADDVANINALNESAPAASSAGPSFRAP [Variant K10R]”, which “Reduction in binding affinity of inhibitory peptide relative to WT” value is on record?
Its value is >1.2 fold.

Which “Reduction in binding affinity of inhibitory peptide relative to WT” value does the source give for “MDNGAGEETKSYARTYRLTADDVANINALNESAPAASSAGPSFRAP [Variant E14R]” here?
Its value is >1.2 fold.

How did the “Reduction in binding affinity of inhibitory peptide relative to WT” value turn out when “MDNGAGEETCSYAETYRLTADDVANINALNESAPAASSAGPSFRAP [Variant K10C]” was run?
The value was >1.2 fold.

“MDNGAGEETKSYAETYRWTADDVANINALNESAPAASSAGPSFRAP [Variant L18W]” was tested. Which “Reduction in binding affinity of inhibitory peptide relative to WT” value did it give?
The value was >1.2 fold.

With “MDNGAGEETKSGAETYRLTADDVANINALNESAPAASSAGPSFRAP [Variant Y12G]” as the molecule, how does the “Reduction in binding affinity of inhibitory peptide relative to WT” value read?
The value was >1.2 fold.

With “MDNGAGEETKSYAETYRLTADDVANANALNESAPAASSAGPSFRAP [Variant I26A]” as the molecule, how does the “Reduction in binding affinity of inhibitory peptide relative to WT” value read?
The value was >1.2 fold.

With “MDNGAGEETKSYADTYRLTADDVANINALNESAPAASSAGPSFRAP [Variant E14D]” as the molecule, how does the “Reduction in binding affinity of inhibitory peptide relative to WT” value read?
Its value is >1.2 fold.

Which “Reduction in binding affinity of inhibitory peptide relative to WT” value does the source give for “MDNGAGEETKSPAETYRLTADDVANINALNESAPAASSAGPSFRAP [Variant Y12P]” here?
Its value is >1.2 fold.

For “MDNGAGEETKSTAETYRLTADDVANINALNESAPAASSAGPSFRAP [Variant Y12T]”, which “Reduction in binding affinity of inhibitory peptide relative to WT” value is on record?
Its value is >1.2 fold.

With “MDNGAGGETKSYAETYRLTADDVANINALNESAPAASSAGPSFRAP [Variant E7G]” as the molecule, how does the “Reduction in binding affinity of inhibitory peptide relative to WT” value read?
The value was >1.2 fold.

For “MDNGAGEETKSYACTYRLTADDVANINALNESAPAASSAGPSFRAP [Variant E14C]”, which “Reduction in binding affinity of inhibitory peptide relative to WT” value is on record?
The value was >1.2 fold.

“MDNGAGEETKSYAETYRLTADYVANINALNESAPAASSAGPSFRAP [Variant D22Y]” was tested. Which “Reduction in binding affinity of inhibitory peptide relative to WT” value did it give?
Its value is >1.2 fold.

Which “Reduction in binding affinity of inhibitory peptide relative to WT” value does the source give for “MDNGAGEETDSYAETYRLTADDVANINALNESAPAASSAGPSFRAP [Variant K10D]” here?
Its value is >1.2 fold.

With “MDNGAGEETGSYAETYRLTADDVANINALNESAPAASSAGPSFRAP [Variant K10G]” as the molecule, how does the “Reduction in binding affinity of inhibitory peptide relative to WT” value read?
Its value is >1.2 fold.

MDNGAGEETKS [ΔY12-P46] was tested. Which “Reduction in binding affinity of inhibitory peptide relative to WT” value did it give?
The value was >1.2 fold.
